The record followed here is PubChem BioAssay (NCI).

What all share (test): NCI anticancer screen, dose series, 48 h
Assay [1] has as its system NCI-H226 lung.
Assay [2] relates to CAKI-1 renal.
Assay [3] has as its system MOLT-4 leukemia.
Assay [4] deals with PC-3 prostate.
Assay [5] deals with HL-60(TB) leukemia.
For assay [6], the system named is SR leukemia.
The subject of assay [7] is MDA-MB-231 breast.
Assay [8] deals with NCI-H522 lung.
Assay [9] concerns HCT-116 colon.
Assay [10] deals with SK-MEL-2 melanoma.

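Grown in 96-well plates, cells were treated for 48 hours with each compound at five concentrations. Insufficient inhibition: endpoint recorded as highest concentration tested. GI50: concentration for 50% inhibition of growth. TGI is the concentration that stops growth completely.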

On to `NS(=O)(=O)c1ccc(-c2cc3ccncc3cc2OCc2ccccc2)cc1`, for which the GI50 is greater than 19.9 µM in assay [1]; greater than 23.8 µM in assay [2]; greater than 13.6 µM in assay [3]; greater than 20.5 µM in assay [4]; 6.43 µM in [5]; 6.58 µM in [6]. In addition, the GI50 was 14.6 µM in assay [7], greater than 17 µM in assay [8], greater than 14.8 µM in [9] and 14.6 µM in assay [10]. The TGI was greater than 25 µM in [1]; greater than 25 µM in assay [2]; greater than 25 µM in [3]; greater than 25 µM in assay [4]; greater than 19.3 µM in [5]; greater than 23.4 µM in assay [6]. Moreover, the TGI in assay [7], in assay [8], in [9] and in assay [10] was greater than 25 µM each time.

As to `O=C1c2sccc2-c2cccc3cccc1c23` (tested in a mixture with another compound), the TGI in assay [1] was determined as 33.9 µM; in [2], 24.2 µM; in [3] it was 5.2 µM; in assay [4], 31.6 µM; in [5] it was 46.1 µM; in assay [6], 2.02 µM. Also, the TGI in [7] is 54.3 µM; in [8], 57.1 µM; in [9], greater than 100 µM; in assay [10], greater than 100 µM.

For the compound `N#CCN1CCn2c1nsc2=S`, the GI50 in [1] was greater than 100 µM; in assay [2], greater than 100 µM; in assay [3], 5.1 µM; in [4], greater than 100 µM; in assay [5], 20.2 µM; in [6], 1.09 µM. Also, the GI50 in [7] is greater than 100 µM; in [8], 64.7 µM; in [9] it was greater than 100 µM; in assay [10], greater than 100 µM. Also, the TGI in assay [1] was greater than 100 µM; in [2], greater than 100 µM; in assay [3], greater than 100 µM; in assay [4] it was greater than 100 µM; in assay [5], greater than 100 µM; in assay [6] it was 24.1 µM. For the same compound, the TGI in [7], in assay [8], in assay [9] and in [10] was greater than 100 µM throughout.

With `Cc1cc[n+]2c(c1)-c1cc(C)cc[n+]1CC2`, the TGI in assay [1], in assay [2], in assay [3], in assay [4], in assay [5] and in assay [6] was greater than 100 µM in each case. Further, the TGI is greater than 100 µM in assay [7], greater than 92.9 µM in assay [8], greater than 100 µM in assay [9] and greater than 100 µM in [10].

For the compound `O=C(O)CCC(=O)c1ccc2sc3ccccc3c2c1`, the TGI in [1], in assay [2], in assay [3], in [4], in [5] and in [6] was greater than 100 µM in each case. The TGI in assay [7], in assay [8], in assay [9] and in assay [10] was greater than 100 µM each time.

For the compound `C[C@]12CC[C@@H]3c4cc(OC(F)F)c(OS(N)(=O)=O)cc4CC[C@H]3[C@@H]1CC[C@@H]2O`, the GI50 in [1] was 1.8 µM; in assay [2] it was 0.485 µM; in assay [3], 0.641 µM; in assay [4] it was 0.537 µM; in [5], 0.338 µM; in [6], 0.303 µM. For the same compound, the GI50 in assay [7] is 1.62 µM; in assay [8] it was 0.274 µM; in assay [9] it was 0.434 µM; in assay [10] it was 3.34 µM. Besides, the TGI in [1] was 21.8 µM; in assay [2] it was 44.1 µM; in assay [3], greater than 64.4 µM; in assay [4], 47.8 µM; in [5], 2.49 µM; in [6], greater than 100 µM. The TGI in assay [7] was 15.5 µM; in assay [8], 14.8 µM; in assay [9], 15 µM; in [10] it was 38.7 µM.

Regarding `Oc1ccc(C(c2ccc(O)cc2)c2ccc(Br)cn2)cc1`, the GI50 was 0.243 µM in assay [1]; 20.1 µM in assay [2]; 21.3 µM in [3]; 0.257 µM in assay [4]; 10.6 µM in assay [5]; 26 µM in assay [6]. For the same compound, the GI50 in [7] was 13.4 µM; in assay [8], 1.43 µM; in assay [9] it was 0.517 µM; in [10] it was 1.69 µM. In addition, the TGI is 0.651 µM in assay [1]; greater than 100 µM in assay [2]; 76.4 µM in assay [3]; 0.72 µM in [4]; 44 µM in assay [5]; greater than 86.3 µM in assay [6]. The TGI in [7] was 49.2 µM; in assay [8], 46.6 µM; in [9], 14.4 µM; in [10], 21 µM.

On to `Cc1cc(C)nc(SC2=C(Nc3cc(Cl)ccc3O)C(=O)N(Cc3ccccc3)C2=O)n1`, for which the GI50 in [1] was 1.78 µM; in [2], greater than 160 µM; in assay [3], 6.14 µM; in [4], 19.9 µM; in assay [5], 33.3 µM; in assay [6], 18.6 µM. Further, the GI50 was 16.8 µM in assay [7], 17.4 µM in [8], 31.4 µM in assay [9] and 49.5 µM in assay [10]. Further, the TGI is 47.7 µM in assay [1]; greater than 160 µM in assay [2]; 31.4 µM in assay [3]; 86.4 µM in assay [4]; 70 µM in assay [5]; 70.6 µM in assay [6]. Further, the TGI in assay [7] is 48 µM; in assay [8] it was greater than 160 µM; in [9], greater than 160 µM; in assay [10], greater than 160 µM.
